Measurements taken from ChEMBL document CHEMBL5316338, “Discovery of Novel PTP1B Inhibitors with Once-Weekly Therapeutic Potential for Type 2 Diabetes: Design, Synthesis, and In Vitro and In Vivo Investigations of BimBH3 Peptide Analogues” (J Med Chem, 2023).
Activity calls are given as the source filed them. No cut-off for these calls is given here. Square brackets hold non-standard residues; d marks the D form. Peptide text beside a SMILES is read from it. * marks the point of attachment. ξ: configuration not given here. C18 diacid = O=C(O)CCCCCCCCCCCCCCCCC(=O)*; Myristoyl = CCCCCCCCCCCCCC(=O)*; ξR = N=C(N)NCCCC(N)C(=O)O

Key:
[1] = biological target: T1, Carboxypeptidase A1 (Homo sapiens, UniProt P15085); experiment: Stability of compound assessed as carboxypeptidase A (unknown origin) mediated compound degradation by measuring fold change of half-life by RP-HPLC analysis relative to BimBH312-mer peptide; format: ADME
T1 sequence (P15085 whole entry): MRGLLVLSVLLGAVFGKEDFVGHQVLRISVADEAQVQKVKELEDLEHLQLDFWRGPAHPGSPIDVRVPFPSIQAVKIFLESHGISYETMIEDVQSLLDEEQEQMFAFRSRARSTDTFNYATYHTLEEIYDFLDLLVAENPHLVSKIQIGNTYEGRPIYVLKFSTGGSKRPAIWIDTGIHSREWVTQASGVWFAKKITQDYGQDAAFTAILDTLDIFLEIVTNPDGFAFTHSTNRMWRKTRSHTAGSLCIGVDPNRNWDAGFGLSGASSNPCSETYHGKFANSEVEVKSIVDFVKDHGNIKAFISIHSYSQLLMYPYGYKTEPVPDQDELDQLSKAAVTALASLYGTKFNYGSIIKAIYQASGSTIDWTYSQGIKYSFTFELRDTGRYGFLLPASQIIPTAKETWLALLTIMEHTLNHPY

[2] = biological target: T2, Tyrosine-protein phosphatase non-receptor type 1 (Homo sapiens, UniProt P18031); experiment: Inhibition of N-terminal His tagged recombinant human PTP1B expressed in Escherichia coli using pNPP as substrate assessed as substrate hydrolysis
T2 sequence (P18031 whole entry): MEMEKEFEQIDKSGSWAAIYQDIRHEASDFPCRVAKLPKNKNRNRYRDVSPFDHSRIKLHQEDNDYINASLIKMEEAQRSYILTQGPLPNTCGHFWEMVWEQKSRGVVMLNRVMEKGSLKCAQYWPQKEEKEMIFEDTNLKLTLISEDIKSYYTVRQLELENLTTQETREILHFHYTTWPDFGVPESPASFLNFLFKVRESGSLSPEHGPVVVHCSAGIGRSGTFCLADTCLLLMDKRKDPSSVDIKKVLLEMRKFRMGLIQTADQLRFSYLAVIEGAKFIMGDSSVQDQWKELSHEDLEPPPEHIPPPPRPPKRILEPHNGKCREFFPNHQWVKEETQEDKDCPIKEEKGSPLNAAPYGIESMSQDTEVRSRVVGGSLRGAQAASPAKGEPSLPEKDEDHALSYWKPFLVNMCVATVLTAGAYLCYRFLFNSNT

[3] = test system: Mus musculus; experiment: Antidiabetic activity against C57BL/Ks db/db mouse assessed as redcution in fasting blood glucose level at 1 umol/kg administered subcutaneously and measured immediately by glucometer analysis (reference value: 19.0 +/- 2.7 […]); format: functional; conditions: dose 1 µmol/kg; route sc
[4] = test system: Mus musculus; experiment: Antidiabetic activity against C57BL/Ks db/db mouse assessed as reduction in fasting blood glucose level at 1 uM/kg, sc administered once a week for 2 weeks by glucometer analysis; format: functional, organism-based
[5] = Toxicity in C57BL/Ks db/db mouse assessed as signs of distress at 1 uM/kg, sc administered for 2 weeks; format: organism-based; conditions: in vivo, 336 h
[6] = Stability of compound assessed as Proteinase K (unknown origin) mediated compound degradation by measuring fold change of half-life by HPLC analysis relative to BimBH312-mer peptide; format: ADME
[7] = Stability of compound assessed as Pepsin (unknown origin) mediated compound degradation by measuring fold change of half-life by HPLC analysis relative to BimBH312-mer peptide; format: ADME; conditions: human
[8] = test system: Mus musculus; experiment: Antidiabetic activity against over-night fasted C57BL/ks db/db mouse assessed as suppression of increased blood glucose concentration at 1 uM/kg, sc pretreated with compound for 4 weeks followed by oral glucose stimulation and measured upto 120 mins by oral glucose tolerance test; format: functional, organism-based; conditions: time 40440.0 min
[9] = test system: Mus musculus; experiment: Antidiabetic activity against sc dosed C57BL/Ks db/db mouse assessed as reduction in glucagon level at 1 umol/kg by ELISA analysis; format: functional, organism-based; conditions: dose 1.0 µmol/kg
[10] = biological target: T3, Tyrosine-protein phosphatase non-receptor type 2 (Homo sapiens) (UniProt P17706); experiment: Inhibition of recombinant human TC-PTP (1 to 314 residues) expressed in baculovirus infected insect cells using pNPP as substrate assessed as substrate hydrolysis at 50 umol/L relative to control; conditions: Insect cell, dose 50.0 µmol/L
T3 sequence (whole entry): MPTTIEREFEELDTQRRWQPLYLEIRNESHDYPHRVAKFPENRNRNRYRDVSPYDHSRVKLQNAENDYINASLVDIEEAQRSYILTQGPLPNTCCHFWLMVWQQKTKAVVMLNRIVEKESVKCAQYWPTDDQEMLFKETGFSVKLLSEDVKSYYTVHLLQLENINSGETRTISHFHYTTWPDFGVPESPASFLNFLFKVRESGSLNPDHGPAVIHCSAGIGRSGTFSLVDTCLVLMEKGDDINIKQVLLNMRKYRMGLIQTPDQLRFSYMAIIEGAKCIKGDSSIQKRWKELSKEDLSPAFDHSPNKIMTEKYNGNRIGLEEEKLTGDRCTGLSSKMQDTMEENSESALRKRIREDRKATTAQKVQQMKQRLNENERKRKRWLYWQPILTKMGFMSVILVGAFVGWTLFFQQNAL

[11] = organism: Homo sapiens; experiment: Selectivity index, ratio of IC50 for inhibition of recombinant human TC-PTP (1 to 314 residues) expressed in baculovirus infected insect cells to IC50 for inhibition of N-terminal His-tagged recombinant human PTP1B expressed in Escherichia coli
[12] = test system: Mus musculus; experiment: Antidiabetic activity against C57BL/Ks db/db mouse assessed as reduction in fasting blood glucose level at 1 uM/kg, sc administered once daily and measured on day 8 by glucometer analysis; format: functional, organism-based; conditions: time 8.0 day
[13] = test system: Mus musculus; experiment: Antidiabetic activity against C57BL/Ks db/db mouse assessed as reduction in fasting blood glucose level at 1 uM/kg, sc administered once every 3 days for 2 weeks by glucometer analysis; format: functional, organism-based

Structure (SMILES)	fold change (FC) [1]	IC50 [2] [µM]	Fasting blood glucose level [3] [mmol/L]	Activity [4]	Activity [5]	fold change (FC) [6]	fold change (FC) [7]	Activity [8]	Activity [9]	inhibition [10] [%]	Ratio IC50 [11]	Activity [12]	Activity [13]
CCCCCCCCCCCCCC(=O)N[C@H](C(=O)N[C@@H](C)C(=O)N[C@@H](CCC(N)=O)C(=O)N[C@@H](CCC(=O)O)C(=O)N[C@@H](CC(C)C)C(=O)N[C@@H](CCCNC(=N)N)C(=O)NC(CCCNC(=N)N)C(=O)N[C@H](C(=O)NCC(=O)N[C@@H](CC(=O)O)C(=O)N[C@@H](CCC(=O)O)C(=O)N[C@@H](Cc1ccccc1)C(=O)O)[C@@H](C)CC)[C@@H](C)CC (some centres undefined) (Myristoyl-IAQELR[ξR]IGDEF-OH)	31.9	0.263	20.9	Active	Non-Toxic	5.8	29.5	Active	Active	< 50	> 190		
CC[C@H](C)[C@H](NC(=O)CCCCCCCCCCCCCCCCC(=O)O)C(=O)N[C@@H](C)C(=O)N[C@@H](CCC(N)=O)C(=O)N[C@@H](CCC(=O)O)C(=O)N[C@@H](CC(C)C)C(=O)N[C@@H](CCCNC(=N)N)C(=O)NC(CCCNC(=N)N)C(=O)N[C@H](C(=O)NCC(=O)N[C@@H](CC(=O)O)C(=O)N[C@@H](CCC(=O)O)C(=O)N[C@@H](Cc1ccccc1)C(=O)O)[C@@H](C)CC (some centres undefined) ({C18 diacid}-IAQELR[ξR]IGDEF-OH)	140.9	0.385	19.8	Active	Non-Toxic	2.6	307.7	Active	Active	< 50	> 130	Active	Active
